Experimental data as given in article PMC7914897, “Cytotoxic Potential of a-Azepano- and 3-Amino-3,4-SeCo-Triterpenoids” (International Journal of Molecular Sciences, 2021).

How the values were obtained:
T-47D (Breast cancer) = experiment: NCI-60 screen (SRB, 48 h); settings: Homo sapiens, T47D
COLO 205 (Colon cancer) = experiment: NCI-60 screen (SRB, 48 h); settings: Homo sapiens
TK-10 (Renal cancer) = experiment: NCI-60 screen (SRB, 48 h); settings: Homo sapiens
SNB-19 (CNS cancer) = experiment: NCI-60 screen (SRB, 48 h); settings: Homo sapiens
SK-MEL-5 (Melanoma) = experiment: NCI-60 screen (SRB, 48 h); settings: Homo sapiens
MDA-MB-435 (Melanoma) = experiment: NCI-60 screen (SRB, 48 h); format: cell-based
UACC-257 (Melanoma) = experiment: NCI-60 screen (SRB, 48 h); settings: Homo sapiens
DU-145 (Prostate cancer) = experiment: NCI-60 screen (SRB, 48 h); settings: Homo sapiens
HCT-15 (Colon cancer) = experiment: NCI-60 screen (SRB, 48 h); settings: Homo sapiens
MOLT-4 (Leukemia) = experiment: NCI-60 screen (SRB, 48 h); settings: Homo sapiens
CCRF-CEM (Leukemia) = experiment: NCI-60 screen (SRB, 48 h); settings: Homo sapiens
MALME-3M (Melanoma) = experiment: NCI-60 screen (SRB, 48 h); settings: Homo sapiens
UO-31 (Renal cancer) = experiment: NCI-60 screen (SRB, 48 h); settings: Homo sapiens
Prostate cancer subpanel = experiment: NCI-60 screen, subpanel; settings: Homo sapiens
MCF7 (Breast cancer) = experiment: NCI-60 screen (SRB, 48 h); settings: Homo sapiens
KM12 (Colon cancer) = experiment: NCI-60 screen (SRB, 48 h); settings: Homo sapiens
HS 578T (Breast cancer) = experiment: NCI-60 screen (SRB, 48 h); settings: Homo sapiens
HT29 (Colon cancer) = experiment: NCI-60 screen (SRB, 48 h); settings: Homo sapiens
OVCAR-3 (Ovarian cancer) = experiment: cells; settings: Homo sapiens
Leukemia subpanel = experiment: cells; settings: Homo sapiens
IGROV1 (Ovarian cancer) = experiment: NCI-60 screen (SRB, 48 h); settings: Homo sapiens
Melanoma subpanel = experiment: NCI-60 screen, subpanel; settings: Homo sapiens
HCC-2998 (Colon cancer) = experiment: NCI-60 screen (SRB, 48 h); settings: Homo sapiens
HOP-92 (NSC lung cancer) = experiment: NCI-60 screen (SRB, 48 h); settings: Homo sapiens
[1] = test system: NCI-H226 (NSC lung cancer); experiment: NCI-60 screen (SRB, 48 h); settings: Homo sapiens
SW-620 (Colon cancer) = experiment: NCI-60 screen (SRB, 48 h); settings: Homo sapiens
K-562 (Leukemia) = experiment: NCI-60 screen (SRB, 48 h); settings: Homo sapiens

C=C(C)[C@@H]1CC[C@]2(C)[C@H](C=CC3=C4C[C@@](C)(CO)CC[C@]4(C)CC[C@]32C)[C@@]1(C)CCCN [Compound 20]
GI50 (T-47D (Breast cancer)): 1.67 µM
IC (TGI) (T-47D (Breast cancer); 48 h, read-out: TGI): 3.45 µM
GI50 (COLO 205 (Colon cancer); COLO 205): 1.49 µM
IC (TGI) (COLO 205 (Colon cancer); COLO 205, 48 h, read-out: TGI): 3.23 µM
CC50 (COLO 205 (Colon cancer); COLO 205, read-out: LC50): 6.96 µM
GI50 (TK-10 (Renal cancer); TK-10): 1.78 µM
IC (TGI) (TK-10 (Renal cancer); TK-10, 48 h, read-out: TGI): 3.36 µM
CC50 (TK-10 (Renal cancer); TK-10, read-out: LC50): 6.37 µM
GI50 (SNB-19 (CNS cancer); SNB-19): 1.75 µM
IC (TGI) (SNB-19 (CNS cancer); SNB-19, 48 h, read-out: TGI): 3.17 µM
CC50 (SNB-19 (CNS cancer); SNB-19, read-out: LC50): 5.74 µM
GI50 (SK-MEL-5 (Melanoma); SK-MEL-5): 1.72 µM
IC (TGI) (SK-MEL-5 (Melanoma); SK-MEL-5, 48 h, read-out: TGI): 3.19 µM
GI50 (MDA-MB-435 (Melanoma); Homo sapiens, MDA-MB-435): 1.78 µM
IC (TGI) (MDA-MB-435 (Melanoma); Homo sapiens, MDA-MB-435, 48 h, read-out: TGI): 3.2 µM
CC50 (MDA-MB-435 (Melanoma); Homo sapiens, MDA-MB-435, read-out: LC50 (the source's name)): 5.76 µM
Growth % of the Most Sensitive Cell Lines (MDA-MB-435 (Melanoma); MDA-MB-435, 1 dose 10 µM): −96.77%
GI50 (UACC-257 (Melanoma); UACC-257): 1.82 µM
IC (TGI) (UACC-257 (Melanoma); UACC-257, 48 h, read-out: TGI): 3.65 µM
CC50 (UACC-257 (Melanoma); UACC-257, read-out: LC50): 7.14 µM
GI50 (DU-145 (Prostate cancer); DU-145): 1.72 µM
IC (TGI) (DU-145 (Prostate cancer); DU-145, 48 h, read-out: TGI): 3.15 µM
CC50 (DU-145 (Prostate cancer); DU-145, read-out: LC50): 5.78 µM
GI50 (HCT-15 (Colon cancer); HCT-15): 1.53 µM
IC (TGI) (HCT-15 (Colon cancer); HCT-15, 48 h, read-out: TGI): 2.92 µM
CC50 (HCT-15 (Colon cancer); HCT-15, read-out: LC50): 5.56 µM
GI50 (MOLT-4 (Leukemia); MOLT-4): 1.78 µM
IC (TGI) (MOLT-4 (Leukemia); MOLT-4, 48 h, read-out: TGI): 3.86 µM
GI50 (CCRF-CEM (Leukemia)): 2.12 µM
IC (TGI) (CCRF-CEM (Leukemia); 48 h, read-out: TGI): 5.56 µM
CC50 (CCRF-CEM (Leukemia); read-out: LC50): > 100 µM
GI50 (MALME-3M (Melanoma)): 1.46 µM
IC (TGI) (MALME-3M (Melanoma); 48 h, read-out: TGI): 2.91 µM
CC50 (MALME-3M (Melanoma); read-out: LC50): 5.82 µM
GI50 (UO-31 (Renal cancer); UO-31): 1.34 µM
IC (TGI) (UO-31 (Renal cancer); UO-31, 48 h, read-out: TGI): 2.65 µM
CC50 (UO-31 (Renal cancer); UO-31, read-out: LC50): 5.24 µM
IC (TGI) (Prostate cancer subpanel; 48 h, read-out: TGI MG_MID): 3.22 µM
GI50 (Prostate cancer subpanel; read-out: GI50 MG_MID): 1.71 µM
GI50 (MCF7 (Breast cancer); MCF7): 1.6 µM
IC (TGI) (MCF7 (Breast cancer); MCF7, 48 h, read-out: TGI): 3.4 µM
CC50 (MCF7 (Breast cancer); MCF7, read-out: LC50): 7.23 µM
GI50 (KM12 (Colon cancer); KM12): 1.6 µM
IC (TGI) (KM12 (Colon cancer); KM12, 48 h, read-out: TGI): 3.02 µM
CC50 (KM12 (Colon cancer); KM12, read-out: LC50): 5.67 µM
GI50 (HS 578T (Breast cancer)): 1.8 µM
IC (TGI) (HS 578T (Breast cancer); 48 h, read-out: TGI): 4.07 µM
CC50 (HS 578T (Breast cancer); read-out: LC50): 9.2 µM
GI50 (HT29 (Colon cancer); HT-29): 1.63 µM
IC (TGI) (HT29 (Colon cancer); HT-29, 48 h, read-out: TGI): 3.28 µM
CC50 (HT29 (Colon cancer); HT-29, read-out: LC50): 6.59 µM
GI50 (OVCAR-3 (Ovarian cancer); OVCAR-3): 1.48 µM
IC (TGI) (OVCAR-3 (Ovarian cancer); OVCAR-3, 48 h, read-out: TGI): 2.85 µM
CC50 (OVCAR-3 (Ovarian cancer); OVCAR-3, read-out: LC50): 5.46 µM
IC (TGI) (Leukemia subpanel; 48 h, read-out: TGI MG_MID): 4.52 µM
GI50 (Leukemia subpanel; read-out: GI50 MG_MID): 1.82 µM
CC50 (Leukemia subpanel; read-out: LC50 MG_MID): > 100 µM
GI50 (IGROV1 (Ovarian cancer); IGROV-1): 1.5 µM
IC (TGI) (IGROV1 (Ovarian cancer); IGROV-1, 48 h, read-out: TGI): 2.95 µM
CC50 (IGROV1 (Ovarian cancer); IGROV-1, read-out: LC50): 5.8 µM
IC (TGI) (Melanoma subpanel; 48 h, read-out: TGI MG_MID): 3.22 µM
GI50 (Melanoma subpanel; read-out: GI50 MG_MID): 1.71 µM
CC50 (Melanoma subpanel; read-out: LC50 MG_MID): 6.09 µM
GI50 (HCC-2998 (Colon cancer); HCC 2998): 0.79 µM
IC (TGI) (HCC-2998 (Colon cancer); HCC 2998, 48 h, read-out: TGI): 2.14 µM
CC50 (HCC-2998 (Colon cancer); HCC 2998, read-out: LC50): 4.97 µM
GI50 (HOP-92 (NSC lung cancer); HOP-92): 1.48 µM
IC (TGI) (HOP-92 (NSC lung cancer); HOP-92, 48 h, read-out: TGI): 3.21 µM
CC50 (HOP-92 (NSC lung cancer); HOP-92, read-out: LC50): 6.96 µM
GI50 ([1]; NCI-H226): 1.85 µM
IC (TGI) ([1]; NCI-H226, 48 h, read-out: TGI): 3.66 µM
GI50 (SW-620 (Colon cancer); SW-620): 1.56 µM
IC (TGI) (SW-620 (Colon cancer); SW-620, 48 h, read-out: TGI): 3.04 µM
CC50 (SW-620 (Colon cancer); SW-620, read-out: LC50): 5.93 µM
GI50 (K-562 (Leukemia); K562): 1.8 µM
IC (TGI) (K-562 (Leukemia); K562, 48 h, read-out: TGI): 5.04 µM
CC50 (K-562 (Leukemia); K562, read-out: LC50): > 100 µM
